Experiments:
[1] = test system: GLI1, GLI2 and GLI/TAFII31 induced transcription in NSCLC A549 cells; assay: 6xGLI BS-luciferase reporter assay (GLI / TAFII31 co-expression); format: cell-based, human; details: for reduction of transcription activity (6xGLI BS-luciferase): 20 μM, 16-20 hours
Protocol: One day before transfection, cells (1×10^5) were plated in 12-well plates with growth medium without antibiotics. When cells reached 80-90% of confluence they were co-transfected using 0.5 μg of each promoter construct in pGL3Basic vector and 0.025 μg pRL-TK Vector (Promega; Madison, Wis.) containing Renilla Luciferase as an internal control for the transformation efficiency. Lipofectamine 2000™ (Invitrogen Life Technologies) was used to mediate transfection for about 6 hours. Then the medium was replaced with fresh medium containing various small molecule compounds at a concentration of 30 μM, and the resulting cells were cultured for an additional 18-24 hours and subjected to luciferase assay. Briefly, cells were lysed in a lysis buffer and Firefly and Renilla Luciferase activities in cells of each well, were measured using Dual-Luciferase Assay System (Promega) and an illuminometer. The measured luciferase activities were normalized to pRL-TK Vector activity and were given relative to the basal activity of empty pGL3-Basic Vector, which was set to unity. The data shown represent mean values (±S.D.). All measurements were performed in triplicate and repeated in at least three independent experiments. The human Wnt-2 promoter-luciferase construct, the human SOCS3 promoter-Luciferase construct and the human Gremlin promoter-luciferase construct were cloned and characterized in the laboratory of Dr. Jablons at the University of California, San Francisco (San Francisco, Calif.; He et al., Biochem Biophy Res Comm, 2003; and unpublished data). The 6GLI-TKO-luciferase construct (containing 6 repeats of consensus GLI DNA binding sequence) was kindly provided by Dr. Matthias Hebrok's laboratory at the University of California, San Francisco (San Francisco, Calif.).
Further, the specificity of the compounds of the present invention in inhibiting GLI activity and to determine whether these compounds block the interaction between GlLI and TAFII31 as described above, was examined. Specifically, in this analysis, an expression construct linking the 6 repeats of GLI-binding sites (6xGLI BS) to a luciferase reporter gene as a surrogate measurement of the GLI-dependent transcription was used to examine the 6xGLI BS-luciferase activity after treatment of NSCLC A549 cells with compound FN1-8. […] This finding again confirmed that both GLI1 and GLI2 specifically bound to the GLI-binding sites and were functionally active in transcription. […] After treatment of the A549 cells for 16-20 hours with 20 μM, FN1-8 both GLI alone and GLI/TAFII31 induced 6xGLI BS-luciferase transcription was reduced.

[2] = test system: melanoma cells Malme-3M, A375, G361, SK-Mel-2, SK-Mel-5, and SK-Mel-28; assay: MTS cell proliferation assay; format: cell-based, human; details: 5 μM or 10 μM
Description: Another assay for determining the number of viable cells in proliferation or cytotoxicity assays is the MTS assay, a calorimetric method. MTS assay reagents are commercially available (Promega Corp., Madison, Wis.). The reagent contains a tetrazolium compound [3-(4,5-dimethylthiazol-2-yl)-5-(3-carboxymethoxyphenyl)-2-(4-sulfophenyl)-2H-tetrazolium, inner salt; MTS] and an electron coupling reagent (phenazine ethosulfate; PES). PES has enhanced chemical stability, which allows it to be combined with MTS to form a stable solution. The MTS tetrazolium compound (Owen.s reagent) is bioreduced by cells into a colored formazan product that is soluble in tissue culture medium. This conversion may be accomplished by NADPH or NADH produced by dehydrogenase enzymes in metabolically active cells. The quantity of formazan product as measured by the absorbance at 490 nm is directly proportional to the number of living cells in culture. Because the MTS formazan product is soluble in tissue culture medium, this assay requires fewer steps than procedures that use tetrazolium compounds such as MTT. The formazan product of MTT reduction is a crystalline precipitate that requires an additional step in the procedure to dissolve the crystals before recording absorbance readings at 570 nm. […]

**Q.** Which results are given for `O=C(NCCc1ccc(O)cc1)C1C(c2ccccc2)=NN(c2ccccc2)C1c1ccccc1` (centres unmarked) [FN1-8, N-(2-(4-Hydroxyphenyl)ethyl)-1,3,5-triphenyl-4,5-dihydro-pyrazole-4-carboxyamide]?
**A.** GLI protein-TAF-induced transcriptional activation ([1]; A549 (FIG. 16)): reduces GLI protein-TAF-induced transcriptional activation; reduction of transcription activity (6xGLI BS-luciferase) ([1]; GLI1 cotransfected with TAFII31): about 70%; reduction of transcription activity (6xGLI BS-luciferase) ([1]; GLI2 cotransfected with TAFII31): about 50%; reduction of transcription activity (6xGLI BS-luciferase) ([1]; GLI alone): approximately 30%; cell proliferation (MTS) [2]: significantly inhibited cell proliferation
